Data on four compounds can be found in PMC9841589, “Identification of 2-Aminoacyl-1,3,4-thiadiazoles as Prostaglandin E2 and Leukotriene Biosynthesis Inhibitors” (ACS Medicinal Chemistry Letters, 2022).

In this assay the target is T1, Human recombinant sEH (Homo sapiens, UniProt P34913).
T1 construct: made in house; host or cells: Sf9 cells infected with a baculovirus provided by Dr. B. Hammock
T1 sequence (P34913 1-555): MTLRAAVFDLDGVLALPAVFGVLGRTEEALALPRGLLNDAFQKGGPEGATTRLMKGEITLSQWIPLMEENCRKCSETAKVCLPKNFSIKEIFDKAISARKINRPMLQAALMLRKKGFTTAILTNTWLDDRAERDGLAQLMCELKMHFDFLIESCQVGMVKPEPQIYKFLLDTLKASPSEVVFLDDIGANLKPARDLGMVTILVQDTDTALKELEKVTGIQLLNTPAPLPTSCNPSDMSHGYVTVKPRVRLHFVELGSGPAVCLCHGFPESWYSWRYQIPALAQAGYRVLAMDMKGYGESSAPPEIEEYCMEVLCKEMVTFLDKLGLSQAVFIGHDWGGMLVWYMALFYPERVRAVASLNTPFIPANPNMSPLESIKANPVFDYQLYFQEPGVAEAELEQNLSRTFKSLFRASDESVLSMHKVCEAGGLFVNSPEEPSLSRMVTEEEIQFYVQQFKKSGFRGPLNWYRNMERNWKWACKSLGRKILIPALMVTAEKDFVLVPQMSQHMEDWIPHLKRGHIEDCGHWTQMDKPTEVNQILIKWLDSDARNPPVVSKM
Description: Activity assay of human recombinant sEH. In kind it is biochemical. The conditions noted are these: percentage of uninhibited control (100%), n = 3, n.i.: no inhibitory activity observed, read-out: sEH residual activity (%). How it is done:
8) plus 5 mM glutathione, 100 µM EDTA and 5 µM hemoglobin) to a final concentration of 50 U/mL for COX-1 and 20 U/mL for COX-2, and pre-incubated with test compounds 3, 6, 7, and 9 (10 µM) or vehicle (0.1% DMSO) over 5 min at rt. After 1 min at 37 °C, reactions were started after addition of arachidonic acid to a final concentration of 5 µM for COX-1 and 2 µM for COX-2. After 5 min at 37 °C, 1 mL of ice-cold methanol was added for stopping the reactions on ice. Then, PGB 1 as internal standard and 530 µl PBS plus HCl were added, and solid-phase extraction was performed as reported before.4-6, 17-19 COXs product formation (12-HHT) was determined using RP-HPLC. 4-6, 17-19 Indomethacin (10 µM) and celecoxib (5 µM) were used as reference drugs.
Expression, purification and activity assay of human recombinant sEH
Human recombinant sEH was expressed in Sf9 cells and was infected using a baculovirus, provided by Dr. B. Hammock, University of California, Davis, CA. After 72 hours, cells were pelleted and sonicated (3 × 10 sec) at 4 °C in lysis buffer (50 mM NaHPO 4, pH = 8, 300 mM NaCl, 10% glycerol, 1 mM EDTA, 1 mM phenylmethanesulfonyl fluoride, 10 µg/mL of leupeptin, and 60 µg/mL of soybean trypsin inhibitor). Lysates were centrifuged over 60 min at 4 °C (100,000 × g), and supernatants were collected and submitted to a benzylthio-sepharose-affinity chromatography for sEH purification by elution with 4-fluorochalcone oxide in PBS plus 1 mM DTT and 1 mM EDTA.720 Bio-Rad protein detection kit (Bio-Rad Laboratories, Munich, Germany) was used for total protein on dialyzed and concentrated (Millipore Amicon-Ultra-15 centrifugal filter) enzyme solution and a fluorescence-based assay was used to define the epoxide hydrolase activity. 5,618, 19 Then, sEH was diluted in Tris buffer (25 mM, pH = 7) supplemented with 0.1 mg/mL of BSA to an appropriate enzyme concentration and pre-incubated with test compounds 3, 6, 7, 9 (10 µM) or vehicle (0.1% DMSO) for 15 min at rt. 50 µM 3-phenyl-cyano(6-methoxy-2-naphthalenyl)methyl ester-2-oxiraneacetic acid (PHOME), a non-fluorescent compound, was added for starting the reaction.
PHOME is enzymatically converted into a fluorescent compound, 6-methoxy-naphtaldehyde, detectable by using a spectrofluorometer setting λ em = 465 nm, λ ex = 330 nm. After 60 min, ZnSO 4 […]
(200 mM) was added for stopping the reaction, and then fluorescence was detected. AUDA (12-(3-adamantan-1-yl-ureido)-dodecanoic acid) (100 nM) was used as reference drug.
Human neutrophils and monocytes were freshly isolated from leukocyte concentrates obtained from the Institute of Transfusion Medicine, University Hospital Jena. […]
As for `O=C(Nc1nnc(-c2ccc(-c3cccc(O)c3)cc2)s1)c1ccccc1Br` [compound 3], the remaining activity at 10 µM stood at 96%.

As to `Cc1cc(C(=O)Nc2nnc(-c3ccc(-c4ccccc4N)cc3)s2)cc(Cl)n1` [compound 6], the remaining activity at 10 µM came out at 67.7%.

For `Nc1ccccc1-c1ccc(-c2nnc(NC(=O)c3ccccc3Br)s2)cc1` [compound 7], the remaining activity at 10 µM stood at 164%.

In the case of `Nc1ccccc1-c1ccc(-c2nnc(NC(=O)c3c(Cl)ccnc3Cl)s2)cc1` [compound 9], the remaining activity at 10 µM amounted to 83.9%.
